From patent US8906930B2, “Quinazoline derivatives” (Merck Patent GmbH, priority 2009, dated 2014)

These compounds were tested against T1, Recombinant human HSP90α (Homo sapiens, UniProt P07900) (assay: HSP90 radioligand filter binding test ([3H]17AAG competition)). Conditions: radioligand [3H]17AAG 0.08 μM; HSP90 1.5 μg/assay; 22° C., 30 min; read-out: HSP90 inhibition IC50.
T1 construct: host or cells: E. coli
Excerpt: The binding of geldanamycin or 17-allylamino-17-demethoxygeldanamycin (17AAG) to HSP90 and competitive inhibition thereof can be utilised in order to determine the inhibitory activity of the compounds according to the invention (Carreras et al. 2003, Chiosis et al. 2002).
In the specific case, a radioligand filter binding test is used. The radioligand used here is tritium-labelled 17-allylaminogeldanamycin, [3H]17AAG. This filter binding test allows a targeted search for inhibitors which interfere with the ATP binding site.
Recombinant human HSP90α (E. coli expressed, 95% purity);
[3H]17AAG (17-allylaminogeldanamycin, [allylamino-2,3-^3H. Specific activity: 1.11×10^12 Bq/mmol (Moravek, MT-1717);
HEPES filter buffer (50 mM HEPES, pH 7.0, 5 mM MgCl2, BSA 0.01%) Multiscreen FB (1 μm) filter plate (Millipore, MAFBNOB 50).
The 96-well microtitre filter plates are firstly irrigated and coated with 0.1% of polyethylenimine.
The test is carried out under the following conditions:
Reaction temperature 22° C.
Reaction time: 30 min., shaking at 800 rpm
50 mM HEPES HCl, pH 7.0, 5 mM MgCl2, 0.01% (w/v) of BSA
At the end of the reaction, the supernatant in the filter plate is removed by suction with the aid of a vacuum manifold (Multiscreen Separation System, Millipore), and the filter is washed twice.
The filter plates are then measured in a beta counter (Microbeta, Wallac) with scintillator (Microscint 20, Packard).
“% of control” is determined from the “counts per minutes” values, and the IC-50 value of a compound is calculated therefrom.

IC50, 1 to 10 µM:
Nc1nc(C(=O)N2Cc3ccccc3C2)c2cc(CC(=O)O)ccc2n1 [Compound A2, 2-[2-Amino-4-(isoindoline-2-carbonyl)quinazolin-6-yl]acetic acid]
NC(=O)Cc1ccc2nc(N)nc(C(=O)N3Cc4ccccc4C3)c2c1 [Compound A3, 2-[2-amino-4-(isoindoline-2-carbonyl)quinazolin-6-yl]acetamide]
CCNC(=O)Cc1ccc2nc(N)nc(C(=O)N3Cc4ccccc4C3)c2c1 [Compound A6, 2-[2-amino-4-(isoindoline-2-carbonyl)quinazolin-6-yl]-N-ethylacetamide]
CC(C)(C)NC(=O)Cc1ccc2nc(N)nc(C(=O)N3Cc4ccccc4C3)c2c1 [Compound A7, 2-[2-amino-4-(isoindoline-2-carbonyl)quinazolin-6-yl]-N-tert-butylacetamide]
CCN(CC)C(=O)Cc1ccc2nc(N)nc(C(=O)N3Cc4ccccc4C3)c2c1 [Compound A8, 2-[2-amino-4-(isoindoline-2-carbonyl)quinazolin-6-yl]-N,N-diethylacetamide]
CN(C)C(=O)Cc1ccc2nc(N)nc(C(=O)N3Cc4ccccc4C3)c2c1 [Compound A9, 2-[2-Amino-4-(isoindoline-2-carbonyl)quinazolin-6-yl]-N,N-dimethylacetamide]
CCN(C)C(=O)Cc1ccc2nc(N)nc(C(=O)N3Cc4ccccc4C3)c2c1 [Compound A10, 2-[2-Amino-4-(isoindoline-2-carbonyl)quinazolin-6-yl]-N-ethyl-N-methylacetamide]
CN(CCO)C(=O)Cc1ccc2nc(N)nc(C(=O)N3Cc4ccccc4C3)c2c1 [Compound A11, 2-[2-Amino-4-(isoindoline-2-carbonyl)quinazolin-6-yl]-N-(2-hydroxyethyl)-N-methylacetamide]
CCN(CCO)C(=O)Cc1ccc2nc(N)nc(C(=O)N3Cc4ccccc4C3)c2c1 [Compound A12, 2-[2-Amino-4-(isoindoline-2-carbonyl)quinazolin-6-yl]-N-(2-hydroxyethyl)-N-ethylacetamide]
Nc1nc(C(=O)N2Cc3ccccc3C2)c2cc(CC(=O)N3CCCC3)ccc2n1 [Compound A13, 2-[2-Amino-4-(isoindoline-2-carbonyl)quinazolin-6-yl]-1-pyrrolidin-1-ylethanone]
CC1CCCN1C(=O)Cc1ccc2nc(N)nc(C(=O)N3Cc4ccccc4C3)c2c1 (stereo not drawn) [Compound A14, 2-[2-Amino-4-(isoindoline-2-carbonyl)quinazolin-6-yl]-1-(2-methylpyrrolidin-1-yl)ethanone]
CC1CCC(C)N1C(=O)Cc1ccc2nc(N)nc(C(=O)N3Cc4ccccc4C3)c2c1 (stereo not drawn) [Compound A15, 2-[2-Amino-4-(isoindoline-2-carbonyl)quinazolin-6-yl]-1-(2,5-dimethylpyrrolidin-1-yl)ethanone]
CNC(=O)Cc1ccc2nc(N)nc(C(=O)N3Cc4ccccc4C3)c2c1 [Compound A16, 2-[2-Amino-4-(isoindoline-2-carbonyl)quinazolin-6-yl]-N-methylacetamide]
CN1CCN(C(=O)Cc2ccc3nc(N)nc(C(=O)N4Cc5ccccc5C4)c3c2)CC1 [Compound A17, 2-[2-Amino-4-(isoindoline-2-carbonyl)quinazolin-6-yl]-1-(4-methylpiperazin-1-yl)ethanone]
CN(Cc1cncn1C)C(=O)Cc1ccc2nc(N)nc(C(=O)N3Cc4ccccc4C3)c2c1 [Compound A19]
CN(C)C(=O)C1(c2ccc3nc(N)nc(C(=O)N4Cc5ccccc5C4)c3c2)CC1 [Compound A22, 1-[2-Amino-4-(isoindoline-2-carbonyl)quinazolin-6-yl]-N,N-dimethylcyclopropanecarboxamide]
CCN(C)C(=O)C1(c2ccc3nc(N)nc(C(=O)N4Cc5ccccc5C4)c3c2)CC1 [Compound A23, 1-[2-Amino-4-(isoindoline-2-carbonyl)quinazolin-6-yl]-N-ethyl-N-methylcyclopropanecarboxamide]
CCN(CC)C(=O)C1(c2ccc3nc(N)nc(C(=O)N4Cc5ccccc5C4)c3c2)CC1 [Compound A24, 1-[2-Amino-4-(isoindoline-2-carbonyl)quinazolin-6-yl]-N,N-diethylcyclopropanecarboxamide]
CN(CCO)C(=O)C1(c2ccc3nc(N)nc(C(=O)N4Cc5ccccc5C4)c3c2)CC1 [Compound A25, 1-[2-Amino-4-(isoindoline-2-carbonyl)quinazolin-6-yl]-N-(2-hydroxyethyl)-N-methylcyclopropanecarboxamide]
CCN(CCO)C(=O)C1(c2ccc3nc(N)nc(C(=O)N4Cc5ccccc5C4)c3c2)CC1 [Compound A26, 1-[2-Amino-4-(isoindoline-2-carbonyl)quinazolin-6-yl]-N-(2-hydroxyethyl)-N-ethylcyclopropanecarboxamide]
Nc1nc(C(=O)N2Cc3ccccc3C2)c2cc(C3(C(=O)N4CCCC4)CC3)ccc2n1 [Compound A27, [2-Amino-6-[1-(pyrrolidine-1-carbonyl)cyclopropyl]quinazolin-4-yl]isoindolin-2-ylmethanone]
CCN(CCN(C)C)C(=O)C1(c2ccc3nc(N)nc(C(=O)N4Cc5ccccc5C4)c3c2)CC1 [Compound A28, 1-[2-Amino-4-(isoindoline-2-carbonyl)quinazolin-6-yl]-N-(2-dimethylaminoethyl)-N-ethylcyclopropanecarboxamide]

IC50, 0.01 to 1 µM:
CCOC(=O)Cc1ccc2nc(N)nc(C(=O)N3Cc4ccccc4C3)c2c1 [Compound A1, Ethyl 2-[2-amino-4-(isoindoline-2-carbonyl)quinazolin-6-yl]acetate]
NC(=O)C(CCC(F)F)c1ccc2nc(N)nc(C(=O)N3Cc4ccccc4C3)c2c1 (stereo not drawn) [Compound A4]
NC(=O)C1(c2ccc3nc(N)nc(C(=O)N4Cc5ccccc5C4)c3c2)CCC1 [Compound A5, 1-[2-amino-4-(isoindoline-2-carbonyl)quinazolin-6-yl]cyclobutane-carboxamide]
CC(C)(C)NC(=O)C1(c2ccc3nc(N)nc(C(=O)N4Cc5ccccc5C4)c3c2)CC1 [Compound A20, 1-[2-Amino-4-(isoindoline-2-carbonyl)quinazolin-6-yl]-N-tert-butylcyclopropanecarboxamide]
CCNC(=O)C1(c2ccc3nc(N)nc(C(=O)N4Cc5ccccc5C4)c3c2)CC1 [Compound A21, 1-[2-Amino-4-(isoindoline-2-carbonyl)quinazolin-6-yl]-N-ethylcyclopropanecarboxamide]
CC(C)(C)NC(=O)C1(c2ccc3nc(N)nc(C(=O)N4Cc5ccccc5C4)c3c2)CCC1 [Compound A29, 1-[2-Amino-4-(isoindoline-2-carbonyl)quinazolin-6-yl]-N-tert-butylcyclobutanecarboxamide]
CNC(=O)C1(c2ccc3nc(N)nc(C(=O)N4Cc5ccccc5C4)c3c2)CCC1 [Compound A31, 1-[2-Amino-4-(isoindoline-2-carbonyl)quinazolin-6-yl]-N-methylcyclobutanecarboxamide]

IC50, > 10 µM:
Nc1nc(C(=O)N2Cc3ccccc3C2)c2cc(CC(=O)N3CCNCC3)ccc2n1 [Compound A18, 2-[2-amino-4-(isoindoline-2-carbonyl)quinazolin-6-yl]-1-piperazin-1-ylethanone]
